# Columns and labels:
# [1] = cited from earlier work
# [2] = tested on: Irg1; test: Irg1 mRNA transcript expression in preserved murine donor hearts; set-up: species or system mouse; settings: 16 hours preservation without reperfusion and during ex vivo perfusion
# Description: (§1) Male and female WT or Irg1^−/− mice (Jackson laboratories, Bar Harbor, ME) were anesthetized intraperitoneally with 80 mg/kg ketamine and 5 mg/kg xylazine, anticoagulated with heparin (2,000 U/kg iv), and the heart was rapidly exposed through a sternal incision. The aorta was cannulated and retrograde perfused in-situ with HTK solution±HDAC inhibitors. After cannulation, the heart dissected free, the left atrium was opened. For 4-OI (Cayman Chemical, 25374) experiments, donor mice were treated 4-OI (dissolved in 40% β-Cyclodextrin, 50 mg/kg intraperitoneally) or vehicle control (40% β-Cyclodextrin intraperitoneally) 2 hours prior to donor heart procurement. After dissection, the heart was stored at 4° C. with HTK or HTK with VPA for a pre-designated duration. The hearts were then mounted on a Radnoti mouse Langendorff apparatus (ADInstruments inc., Colorado Springs, CO) in constant-pressure mode (˜70 mmHg) with a modified Krebs-Henseleit buffer (KHB; in mM: 118 NaCl, 4.7 KCl, 1.25 CaCl2), 1.66 MgSO4, 24.88 NaHCO3, 1.18 KH2PO4, 5.55 glucose, and 2.0 Na-pyruvate). A balloon was placed in the LV through the left atrium and left ventricular diastolic pressure was set to ˜8 mmHg at initiation. The heart was perfused with modified Krebs-Henseleit buffer for 30 min to stabilize and then hemodynamics measurements were recorded. Myocardial temperature was maintained at 37° C. LabChart software (ADInstruments inc., Colorado Springs, CO) was used to record ventricular function, perfusion pressures, cardiac chamber temperature and myocardial temperature. After perfusing the heart for 60 minutes, the heart was removed from the ex-vivo perfusion apparatus for specimen collection. Tissue was immediately placed in liquid N2 or treated with 4% formalin.
# [3] = tested on: pig hearts; test: Porcine ex-vivo heart perfusion after cold preservation
# Description: Heart procurement for both human and pigs were performed as follows. A sternotomy is performed under general anesthesia. The pericardium is then opened to create a pericardial cradle for the heart. Heparin (300U/kg) administered through the right atrium or in a peripheral vein. After waiting 3 minute for adequate anticoagulation from heparin, a 9 Fr antegrade plegia infusion catheter is placed in the ascending aorta. Approximately 1 liter of autologous donor arterial blood is then collected into a collection bottle containing heparin. […] Subsequently, the ascending aorta is cross-clamped distal to the cardioplegia catheter and 1 liter of cold (4° C.) HTK solution is infused into the coronaries at a perfusion pressure of ˜80 mmHg to induce mechanical arrest. After excising the heart completely, it is transported to the back-table for infusion of 2 liters of HTK±VPA solution. After completion, the heart is stored in a solution identical to the perfusate at 4° C. on ice.
# Pig hearts underwent ex-vivo perfusion after preservation for 4 or 10 hours. Approval for human heart procurement was obtained from the University of Michigan Institutional Review Board (HUM00131275). Human donor hearts from deceased brain death donors were procured as per standard clinical protocols from the Gift of Life Michigan (GOLM) organ procurement facility. Myocardial biopsies (˜5 mm^3) of LV were biopsied immediately after cardioplegic arrest (0 h) and after 8 hours (8 h) of cold storage in a cooler containing ice. […] Causes of death were stroke (n=4), trauma (n=2), drug overdose (n=1), and cardiac arrest (n=1). Heart tissue were either fixed in formalin or snap frozen in liquid N2 for later analysis.
# For ex-vivo pig heart perfusion (FIG. 15), the ascending aorta is connected to the arterial perfusion cannula and the left atrium is closed by suturing shut the pulmonary veins. A pressure monitoring catheter and left atrial infusion catheter were then placed into the left atrial cavity and secured. The Miller conductance catheter was introduced into the left ventricular cavity for measurement of ventricular performance parameters. The Radnoti constant perfusion pressure apparatus (ADInstruments Inc., Colorado Springs, CO) was utilized for ex-vivo large animal heart perfusion. Approximately 1 liter of previously collected autologous blood was added to ˜3.5 liters of Krebs buffer and this was initially infused at 24° C. with gradual warming to 37° C. After air was removed from the perfusion system, the ascending aorta and coronaries were retrograde perfused through the arterial cannula at physiological pressure ˜80 mmHg, leading to cardiac reanimation. The perfusion pressure was kept constant at ˜80 mmHg so LV contraction would need to overcome this afterload for cardiac output. Shockable arrhythmias such as ventricular tachycardia, ventricular fibrillation, supraventricular tachycardia were electrically cardioverted to sinus rhythm by delivery of 10 or 20 joules of energy. Cardiac performance was assessed in “resting” and “working” modes (60, 61). The left atrial pressure in resting mode was typically 0-1 mmHg. To assess cardiac hemodynamics in “working mode”, perfusate was infused into the left atrium at 4-10 mmHg at the 4-hour time point for LV loading and cardiac output assessment. Because cardiac performance was highly impaired as expected at the 10-hour time point, the left atrium was loaded to a pressure of up to 15 mmHg to assess cardiac output. At 1 hour intervals, both arterial perfusate and coronary sinus blood were collected for monitoring and analysis. Oxygen pressure was kept at about pO2 150-200 mmHg while pCO2 was kept at about 35-40 mmHg. Arterial pH was maintained at 7.35-7.40 by buffering with 5% CO2 during gas exchange. The heart was perfused ex vivo for 3 hours and then arrested with 4° C. HTK solution for specimen collection in formalin or snap frozen with liquid N2. The heart was weighed at the time of procurement and at the end of perfusion. […]
# [4] = tested on: murine donor hearts; test: Murine ex-vivo heart perfusion after cold preservation; set-up: species or system mouse
# Description: as §1
# [5] = ex vivo perfused hearts compared to HTK alone
structure (smiles),measurement,setting,value
"CCCC(CCC)C(=O)O [VPA, 2-Propyl-pentanoic acid]",water solubility,[1],water soluble
same,Irg1 transcript expression,[2],increased
same,TnI in arterial perfusate,[3],reduced
same,cleaved caspase 3 expression,[3],decreased
same,heart weight,[3],no difference
same,oxygen consumption,[3],higher
same,total Nrf2 protein in cardiac tissue,[3],increased
same,NRF2 nuclear translocation,[3]; 4 and 10 hours of preservation,induced
same,donor heart contractility in working mode,[3]; 4 h and 10 h preservation,improved
same,donor heart relaxation in working mode,[3]; 4 h and 10 h preservation,improved
same,oxidative DNA damage via 8-OHdG staining,[3]; 10 h preservation,greatly reduced
same,improvement of cardiac output (CO) compared with HTK alone,[3]; after 4 h preservation,about 25%
same,aortic pulse pressure magnitude (systolic minus diastolic pressure),[3]; after 10 h of preservation,greater
same,improvement of cardiac output (CO) compared with HTK alone,[3]; after 10 h of preservation,100%
same,systolic pressure in the left ventricular cavity,[3]; after 10 h of preservation,higher
same,perfusate concentration of IL-1β,[3]; after 10 hours of preservation,reduced
same,perfusate concentration of IL-2,[3]; after 10 hours of preservation,reduced
same,perfusate concentration of IL-6,[3]; after 10 hours of preservation,reduced
same,perfusate concentration of TNF-α,[3]; after 10 hours of preservation,reduced
same,expression of pro-survival protein BCL2,[3]; after 10 h preservation,increased
same,expression of IRG1 transcript,[3]; [5],increased
same,mRNA abundance of IL1B,[3]; [5],decreased
same,mRNA abundance of IL6,[3]; [5],decreased
same,mRNA abundance of TNFA,[3]; [5],decreased
same,oxygen consumption compared to HTK alone,[3]; pig hearts preserved for 10 h,greater
same,ex vivo contractility,"[4]; HTK±VPA, cold preservation up to 16 hours",improve
same,cardioprotective effects of VPA with deficiency in Irg1,"[4]; Irg1−/− hearts, ex vivo perfusion and syngeneic transplant models",reduced
same,effect of conditional Irg1 deficiency in myeloid cells on VPA's cardioprotective effects on contractility or relaxation,"[4]; LysM-Cre hearts, ex vivo perfusion model",did not impact
same,VPA concentration with peak cardioprotective effect,"[4]; titration 5, 10 and 20 mM in HTK, 16 hours preservation",10 mM

# Source: patent US20240341301A1 (The Regents of the University of Michigan, priority 2023, published 2024)
